Here are results for 1 substance from article PMC5905120, “An innovative immunotherapeutic strategy for ovarian cancer: CLEC10A and glycomimetic peptides” (Journal for Immunotherapy of Cancer, 2018).

The test system of test [1] is ASGPR-1. The test is described as follows: Inhibition of svL4 binding to ASGPR-1. Further details: species or system human. To be noted: 75 μM asialofetuin, 0.2 μM svL4. The protocol: Solid-phase binding assays were performed with streptavidin-, protein A/G-, or Nickel-coated microtiter plates (Pierce). His-tagged or Fc-fusion recombinant receptors (R&D Systems, Minneapolis, MN) were reconstituted in PBS. Sufficient receptors were added to wells to saturate the coating. His-tagged receptors were added to each well at a 5-fold excess over the stated capacity of the Ni coating to minimize non-specific binding of the peptide. […] The wells were washed four times with binding buffer and then incubated with 50 μL of 1 μg/mL streptavidin conjugated with peroxidase (Sigma-Aldrich) for 1 h. The wells were washed five times with binding buffer and 50 μL of peroxidase substrate (1-Step™ Ultra TMB, Pierce) were added. After several minutes to allow color development, the reaction was stopped with 50 μL 1 M H3PO4 and absorbance was measured at 450 nm. Bound streptavidin was quantitated by the specific activity of peroxidase (absorbance/ng protein conjugate/min) under the conditions of the assay.
Corresponding values for binding of svL4 to CLEC10A and ASGPR-1 of 0.24 ± 0.04 μM and 0.21 ± 0.03 μM, respectively, were obtained.

In test [2] the test system is ASGPR-1. To be noted: ASGPR-1; ref [43]; cited from earlier work. As to the method: The type II C-type lectin asialoglycoprotein receptor-1 (ASGPR-1, Ashwell-Morell receptor, CLEC4H1) on hepatic cells also binds GalNAc-containing structures. ASGPR-1 has a 60-fold greater preference for GalNAc over Gal. Each healthy rat hepatocyte expresses 4 to 5 × 10^5 molecules of ASGPR-1 as binding sites for asialo-orosomucoid or 1.8 × 10^6 molecules as determined by an ASGPR-1-targeted antibody, which provides a surface concentration for the receptor of 0.8 to 1 μM. […] Corresponding values for binding of svL4 to CLEC10A and ASGPR-1 of 0.24 ± 0.04 μM and 0.21 ± 0.03 μM, respectively, were obtained. […] Asialofetuin, a multi-glycosylated pro ...

By IC50 is commonly meant the concentration needed to halve the response being measured. As for “Asialofetuin: multi-glycosylated protein”, the “inhibition of binding of svL4 to ASGPR-1” value in the test with ASGPR-1 [1] turned out to be 53%. Besides, the IC50 with ASGPR-1 [2] was 45.6 ± 2.7 µM.
